One data set addresses hNav1.8 (Homo sapiens (Human), UniProt Q9Y5Y9). The experiment in a line: Manual patch clamp, Method 1 (CHO cell line stably expressing hNav1.8). It counts as cell-based. Conditions: for inhibition at 0.1 µM: 100 nM; for inhibition at 0.1 µM / inhibition at 0.01 µM: read-out: Inhibition rate of hNav1.8; for IC50: Method 1, CHO-hNav1.8, manual patch clamp, resting state, read-out: IC50 inhibitory activity against hNav1.8. From the text: The patch clamp technique is known as the “gold standard” for studying ion channels, and it uses glass microelectrodes to seal the cell membrane to measure the currents of various membrane channel. […] Patch clamp technology can evaluate the inhibition strength of different compounds on different states of Navs by measuring the changes of membrane channel currents after different compounds bind to different states of Navs.
The representative compounds of the present invention used stable CHO or HEK293 cell lines transfected with specific ion channels to measure the effect of the compounds on Nav1.8 currents by manual patch clamp test, to evaluate their inhibition strength.
The assay protocol of manual patch clamp is as follows:
CHO cell lines with stable expression of hNav1.8 were cultured in F12 medium containing 10% fetal bovine serum at a constant temperature of 37° C., and the carbon dioxide concentration was maintained at 5%. The old culture medium was removed and washed once with PBS, then 1 mL 0.25%-Trypsin-EDTA solution was added and incubated at 37° C. for 1 min. When the cells were detached from the bottom of the dish, 5 mL of the complete medium preheated at 37° C. was added, and the aggregated cells were separated by gently blowing with a straw. The cell suspension was transferred into a sterile centrifuge tube and centrifuged at 1000 rpm for 5 min to collect cells. The cells were then inoculated into a cell culture dish with a diameter of 6 cm (2.5×10^5 cells/petri dish, 5 mL medium) for expansion or maintenance.
In order to maintain the electrophysiological activity of the cells, the cell density must be less than 80%.
The cells were separated with 0.25%-Trypsin-EDTA before the assay, and 5×10^3 cells were seeded on a cover slip and cultured in a 24-well plate (final volume: 500 μL) for 18 h. Then the assay was conducted.
The compounds prepared in the examples of the present invention were dissolved in dimethyl sulfoxide (DMSO) and prepared into DMSO stock solution with a concentration of 10 mM for assay. And it was diluted to various concentrations with extracellular solution (140 mM NaCl, 3.5 mM KCl, 1 mM MgCl2, 2 mM CaCl2), 10 mM Glucose, 10 mM HEPES, 1.25 mM NaH2PO4, pH=7.4 regulated by NaOH), and the final concentration of DMSO in each compound sample was 0.10% or less.
A capillary glass pipette (BF150-86-10, Sutter Instruments) was pulled into a recording electrode with a micropipette puller (P97, Sutter Instruments). The micromanipulator (MP285, Sutter Instruments) was manipulated under an inverted microscope (IX71, Olympus) to make the recording electrode contact the cell and negative pressure suction was applied to achieve a GQ seal. Then, rapid capacitance compensation was performed, and negative pressure was continued, cell membrane was broken by suction, and whole cell recording mode was formed. Then the slow capacitance was compensated and the membrane capacitance and series resistance were recorded without leakage compensation. When the whole cell recording current was stabilized, dosing was initiated, and the next concentration was detected after acting 5 minutes of each drug concentration. Multiple cells were independently repeated during the recording period. All electrophysiological assays were performed at room temperature. Specifically, 6 concentrations (measuring IC50) or 2 concentrations (preliminary screening) were set for each compound, and the percentage of inhibition of sodium channels was determined by calculating the relative percentage of peak current generated before and after each concentration compound treated cells, and the IC50 value or percentage of inhibition at a specific concentration was calculated using IGOR pro software.
A general note: Patch clamp records ionic current or voltage across a cell membrane.

The target in a further data set is Human Nav1.8 ion channel (Homo sapiens (Human), UniProt Q9Y5Y9). The experiment in a line: Manual patch clamp, Method 2 (HEK293 cells stably expressing human Nav1.8, resting state). The format is cell-based. Conditions: Method 2, HEK293-hNav1.8, resting state, 1 μM TTX; read-out: IC50 inhibitory activity against hNav1.8.
The nature of data set [1]: Assay of kinetic solubility. Conditions: aqueous buffer, kinetic from dmso stock, pH 3.5 phosphate buffer, 25° C. It counts as physicochemical. As for the experimental part:
The stock solutions of the test compound and the standard progesterone were prepared in DMSO at the concentration of 10 mM.
30 μL of stock solutions at 10 mM of the test compounds and standard substance were placed in order into their proper 96-well plate. 970 μL phosphate buffer at the specified pH was added to the proper vial of the sample plate. The assay was performed in duplicate. A stirring stick was added to each vial and the teflon/silicone plug was capped. The sample tray was then placed in the Eppendorf Thermomixer Comfort and shaken at 1100 RPM at 25° C. for 2 hours. After 2 hours, plugs were removed, a big magnet was used to remove the stirring sticks, and samples were transferred from the sample plate to the filter plate. Vacuum pump was used to create negative pressure and filtered the samples. Transferred 5 μL of the filtrate to the new sample plate, then added 5 μL DMSO and 490 μL water/acetonitrile (V/V=1/1) to dilute the solvent. The dilution factor may be adjusted according to the solubility values of the substances to be tested or the strength of its LC-MS signal response.
From the 10 mM DMSO stock solution, 15 μL of that was transferred into the empty plate and 485 μL DMSO was added to prepare a 300 μM standard solution. From the 300 μM standard solution plate, 5 μL of that was transferred to another empty plate and 5 μL phosphate buffer at specified pH and 490 μL water/acetonitrile (V/V=1/1) dilution solvent were added to the standard solution to get a final concentration of 3 μM. The concentration of the standard solution may be adjusted according to the strength of its LC-MS signal response.
The sample plate was placed into the sample tray of the automatic sampler and the samples were evaluated by LC-MS/MS analysis.
All calculations were carried out by Microsoft Excel.
The sample filtrate was analyzed and quantified against a standard of known concentrations using LC-MS spectral peaks to identify and quantify. The solubility values of the control drug and the compounds to be tested were calculated as the following formula: • [Sample]: concentration of the sample • AREASample: peak area of the sample • INJ VOLStd: standard sample injection volume • DFSample: sample dilution factor • [STD]: standard substance concentration • AREAStd: peak area of standard substance • INJ VOLSample: sample injection volume

A short description of data set [2]: Stability assay for human liver microsomes in vitro. The format is in vitro ADME. Conditions: 1 μM compound, 0.5 mg/mL liver microsomes, read-out: Human liver microsome stability T1/2. On the procedure: • Human liver microsomes, purchased from Corning or Xenotech, stored in a −80° C. refrigerator. • Nicotinamide adenine dinucleotide phosphate (NADPH), Chem-impex international, 00616 • Control compounds: testosterone, diclofenac, propafenone
• Water bath (HH-60, Guohua, Changzhou, China) • Pipette workstation (PP-550DS, Apricot, Covina, USA) • Centrifuge (5810R, Eppendorf, Hamburg, Germany) • Mass Spectrometer (Sciex API 4000, Singapore) • High Performance Liquid Chromatography (LC 20-AD, Shimadzu, Kyoto, Japan) • Sampler (ADDA, Apricot Designs, California, USA)
• Stock solution: 10 mM in DMSO • Working solution concentration preparation: 10 mM stock solution was diluted to 100 μM with 100% acetonitrile (organic phase content: 99% ACN, 1% DMSO)
Two 96-well incubation plates were named T60 incubation plate and NCF60 incubation plate.
445 μL microsomal working solution (liver microsomal protein concentration: 0.56 mg/mL) was added to the T60 and NCF60 incubation plates respectively, then the incubation plates above were placed in a water bath at 37° C. for pre-incubation approximately 10 minutes.
After the pre-incubation finished, 5 μL of the test compound working solution was added to the T60 and NCF60 incubation plates respectively, and mixed well. 50 μL potassium phosphate buffer was added to each well on the NCF60 incubation plate to start the reaction. 180 μL termination solution (acetonitrile solution containing 200 ng/mL tolbutamide and 200 ng/mL labetalol) and 6 uL working solution of NADPH regeneration system were added to the TO termination plate, and 54 μL samples were removed from the T60 incubation plate to the TO termination plate (TO sample generated). The reaction was initiated by adding 44 μL of NADPH regenerating system working solution per well on the T60 incubation plate. Only 54 μL microsomal working solution, 6 uL NADPH regeneration system working solution, and 180 μL termination solution were added to the Blank plate. Therefore, in the samples of the test or control compounds, the final reaction concentration of the compounds, testosterone, diclofenac and propafenone was 1 μM, the concentration of the liver microsomes was 0.5 mg/mL, and the final concentration of DMSO and acetonitrile in the reaction system was 0.01% (v/v) and 0.99% (v/v), respectively.
After incubation for an appropriate time (e.g. 5, 10, 20, 30, and 60 minutes), 180 μL of termination solution (acetonitrile solution containing 200 ng/mL tolbutamide and 200 ng/mL labetalol) was added to the sample hole of each termination plate, respectively. After that, 60 μL sample was removed from the T60 incubation plate to terminate the reaction.
All sample plates were shaken evenly and centrifuged at 3220×g for 20 min. Then 80 μL supernatant was taken from each well and diluted to 240 μL pure water for LC-MS/MS analysis.
All samples were injected for analysis.

SMILES strings stand for the structures. ≈ marks a conversion by molar mass, not a printed value. Where two headings read alike, the source gives them in different places.

Chain of hNav1.8 (Q9Y5Y9 whole entry): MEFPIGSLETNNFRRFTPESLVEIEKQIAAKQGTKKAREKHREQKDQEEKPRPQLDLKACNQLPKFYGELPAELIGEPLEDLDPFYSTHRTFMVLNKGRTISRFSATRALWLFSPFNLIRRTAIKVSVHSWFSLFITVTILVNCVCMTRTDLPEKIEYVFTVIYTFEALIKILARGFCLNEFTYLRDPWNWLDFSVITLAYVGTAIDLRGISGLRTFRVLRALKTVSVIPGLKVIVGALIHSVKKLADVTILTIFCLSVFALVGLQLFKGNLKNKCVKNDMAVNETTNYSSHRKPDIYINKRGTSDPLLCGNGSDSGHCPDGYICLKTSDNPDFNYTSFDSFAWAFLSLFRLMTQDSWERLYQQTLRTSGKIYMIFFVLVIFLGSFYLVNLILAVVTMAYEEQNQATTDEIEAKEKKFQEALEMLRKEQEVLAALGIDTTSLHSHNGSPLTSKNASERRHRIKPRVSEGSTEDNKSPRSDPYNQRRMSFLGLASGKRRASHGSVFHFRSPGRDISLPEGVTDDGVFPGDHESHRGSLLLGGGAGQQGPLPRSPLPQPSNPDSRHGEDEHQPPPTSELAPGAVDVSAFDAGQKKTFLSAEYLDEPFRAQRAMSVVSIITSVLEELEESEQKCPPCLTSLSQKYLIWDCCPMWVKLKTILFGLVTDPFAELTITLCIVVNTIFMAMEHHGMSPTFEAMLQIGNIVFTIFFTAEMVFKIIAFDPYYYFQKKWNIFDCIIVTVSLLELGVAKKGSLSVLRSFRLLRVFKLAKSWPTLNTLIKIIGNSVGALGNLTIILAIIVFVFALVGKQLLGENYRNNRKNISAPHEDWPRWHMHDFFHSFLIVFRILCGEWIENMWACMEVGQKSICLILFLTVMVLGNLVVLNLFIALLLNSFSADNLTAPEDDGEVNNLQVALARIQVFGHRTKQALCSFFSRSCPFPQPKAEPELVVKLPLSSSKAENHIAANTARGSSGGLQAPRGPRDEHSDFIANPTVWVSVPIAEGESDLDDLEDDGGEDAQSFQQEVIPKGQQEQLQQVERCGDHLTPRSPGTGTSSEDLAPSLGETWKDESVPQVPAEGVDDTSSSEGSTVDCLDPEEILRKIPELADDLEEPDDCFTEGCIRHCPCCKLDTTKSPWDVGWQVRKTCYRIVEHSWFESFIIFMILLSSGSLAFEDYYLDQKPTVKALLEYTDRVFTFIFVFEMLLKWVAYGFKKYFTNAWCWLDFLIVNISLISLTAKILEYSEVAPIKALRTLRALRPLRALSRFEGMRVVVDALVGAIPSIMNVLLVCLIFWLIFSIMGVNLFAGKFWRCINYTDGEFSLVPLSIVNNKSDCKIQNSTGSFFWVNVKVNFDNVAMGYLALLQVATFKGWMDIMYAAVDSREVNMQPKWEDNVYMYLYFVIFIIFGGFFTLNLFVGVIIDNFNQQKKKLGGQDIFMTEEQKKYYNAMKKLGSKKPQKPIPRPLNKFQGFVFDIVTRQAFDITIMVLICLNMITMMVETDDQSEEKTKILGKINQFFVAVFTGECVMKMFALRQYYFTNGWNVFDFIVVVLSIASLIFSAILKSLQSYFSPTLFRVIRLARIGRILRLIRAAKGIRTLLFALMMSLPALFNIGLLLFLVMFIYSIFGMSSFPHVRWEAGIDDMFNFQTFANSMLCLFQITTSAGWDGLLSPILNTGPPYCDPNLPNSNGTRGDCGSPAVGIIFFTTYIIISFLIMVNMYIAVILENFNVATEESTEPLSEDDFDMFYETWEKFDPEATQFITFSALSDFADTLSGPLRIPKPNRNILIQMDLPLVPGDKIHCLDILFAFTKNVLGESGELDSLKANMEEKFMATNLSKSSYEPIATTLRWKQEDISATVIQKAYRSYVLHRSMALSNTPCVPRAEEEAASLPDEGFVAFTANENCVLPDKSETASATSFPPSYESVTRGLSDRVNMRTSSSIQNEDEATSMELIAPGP

As usually defined, the inhibition is the drop in the measured response relative to a control, in per cent. Usually IC50 stands for the concentration needed to halve the response being measured. The solubility (kinetic) is the concentration staying in solution when a stock, usually in DMSO, is diluted into the medium. For `COc1cc2cc(C(=O)Nc3ccnc(C(N)=O)c3)c(N3CCCC(F)(F)CC3)nc2cc1OC` [Example 24, N-(2-carbamoylpyridin-4-yl)-2-(4,4-difluoroazepan-1-yl)-6,7-dimethoxyquinoline-3-carboxamide], the inhibition at 0.1 µM at hNav1.8 (Method 1, CHO-hNav1.8) turned out to be 51%. The IC50 at Human Nav1.8 ion channel came to 97.1 nM. The compound further had a kinetic solubility at 2 h in data set [1] of 9.88 µM (≈ 4.8 µg/mL). Moreover, the half-life at 1 µM in data set [2] was greater than 2.42 h.
On to `Cc1ccc2cc(C(=O)Nc3ccnc(C(N)=O)c3)c(N3CCCC(F)(F)CC3)nc2c1` [Example 23, N-(2-carbamoylpyridin-4-yl)-2-(4,4-difluoroazepan-1-yl)-7-methylquinoline-3-carboxamide], for which the inhibition at 0.1 µM at hNav1.8 (Method 1, CHO-hNav1.8) worked out at 97.2%. For the same compound, the IC50 at Human Nav1.8 ion channel came out at 1.5 nM.
Regarding `NC(=O)c1cc(NC(=O)c2cc3ccccc3nc2N2CCCC(F)(F)CC2)ccc1F` [Example 09, N-(3-carbamoyl-4-fluorophenyl)-2-(4,4-difluoroazepan-1-yl)quinoline-3-carboxamide], the inhibition at 0.01 µM at hNav1.8 (10 nM, Method 1, CHO-hNav1.8) was 91.3%. Besides, the IC50 at hNav1.8 stood at 1 nM; at Human Nav1.8 ion channel it was 0.918 nM. For the same compound, the kinetic solubility at 2 h in data set [1] came to 157 µM (≈ 69.6 µg/mL). Further, the half-life at 1 µM in data set [2] worked out at 0.372 h.
As to `NC(=O)c1cccc(NC(=O)c2nc3ccccc3nc2N2CCCC(F)(F)CC2)c1` [Example 07, N-(3-carbamoylphenyl)-3-(4,4-difluoroazepan-1-yl)quinoxaline-2-carboxamide], the inhibition at 0.01 µM on hNav1.8 (10 nM, Method 1, CHO-hNav1.8) is 48.3%. Moreover, the IC50 on hNav1.8 is 14.7 nM. Further, in data set [1], the solubility (kinetic) at 2 h came out at 52.7 µM (≈ 22.4 µg/mL). In data set [2], the half-life at 1 µM was 1.06 h.
For the compound `CNS(=O)(=O)c1cc(NC(=O)c2cc3ccccc3nc2N2CCCC(F)(F)CC2)ccn1` [Example 28, 2-(4,4-difluoroazepan-1-yl)-N-(2-(N-methylsulfamoyl)pyridin-4-yl)quinoline-3-carboxamide], the inhibition at 0.1 µM on hNav1.8 (Method 1, CHO-hNav1.8) amounted to 94.2%. The IC50 at Human Nav1.8 ion channel was 11.4 nM. For the same compound, in data set [1], the kinetic solubility at 2 h came out at 131 µM (≈ 62.3 µg/mL).
As to `CNS(=O)(=O)c1cc(NC(=O)c2cc3cc(F)c(F)cc3nc2N2CCCC(F)(F)CC2)ccn1` [Example 29, 2-(4,4-difluoroazepan-1-yl)-6,7-difluoro-N-(2-(N-methylsulfamoyl)pyridin-4-yl)quinoline-3-carboxamide], the inhibition at 0.1 µM on hNav1.8 (Method 1, CHO-hNav1.8) was 83.7%. This compound returned a solubility (kinetic) at 2 h in data set [1] of less than 1.56 µM.
Take `NS(=O)(=O)c1cccc(NC(=O)c2cc3ccccc3nc2N2CCCC(F)(F)CC2)c1` [Example 13, 2-(4,4-difluoroazepan-1-yl)-N-(3-sulfamoylphenyl)quinoline-3-carboxamide]: the inhibition at 0.01 µM at hNav1.8 (10 nM, Method 1, CHO-hNav1.8) came to 95.6%. On hNav1.8 (Method 1, CHO-hNav1.8), the inhibition at 0.1 µM stood at 99.7%. This compound also returned a kinetic solubility at 2 h in data set [1] of 3.38 µM (≈ 1.56 µg/mL).
With `NS(=O)(=O)c1cc(NC(=O)c2nc3ccccc3nc2N2CCCC(F)(F)CC2)ccn1` [Example 06, 3-(4,4-difluoroazepan-1-yl)-N-(2-sulfamoylpyridin-4-yl)quinoxaline-2-carboxamide], the inhibition at 0.01 µM on hNav1.8 (CHO) amounted to 77.6%. The IC50 on hNav1.8 was 3.1 nM. In addition, the solubility (kinetic) at 2 h in data set [1] is 0.39 µM (≈ 0.18 µg/mL). Further, the half-life at 1 µM in data set [2] is greater than 2.42 h.
Take `CS(=N)(=O)c1cc(NC(=O)c2cc3cc(F)c(F)cc3nc2N2CCCC(F)(F)CC2)ccn1` (stereo not drawn) [Example 27, 2-(4,4-difluoroazepan-1-yl)-6,7-difluoro-N-(2-(S-methylsulfonimidoyl)pyridin-4-yl)quinoline-3-carboxamide]: the inhibition at 0.1 µM at hNav1.8 (Method 1, CHO-hNav1.8) was 97%. Moreover, in data set [1], the kinetic solubility at 2 h amounted to 78.8 µM (≈ 39 µg/mL). Besides, the half-life at 1 µM in data set [2] was found to be 2.26 h.
On to `NS(=O)(=O)c1cccc(NC(=O)c2cc3ccccc3nc2Oc2ccc(F)cc2Cl)c1` [Example 30, 2-(2-chloro-4-fluorophenoxy)-N-(3-sulfamoylphenyl)quinoline-3-carboxamide, reference compound], for which the inhibition at 0.1 µM at hNav1.8 (Method 1, CHO-hNav1.8) turned out to be 94%. For the same compound, the IC50 at Human Nav1.8 ion channel worked out at 9.5 nM. For the same compound, the kinetic solubility at 2 h in data set [1] is less than 0.18 µM.

The values are drawn from patent publication US20250115578A1, “AROMATIC FUSED RING NAV1.8 INHIBITOR, AND USE THEREOF” (CHENGDU KANGHONG PHARMACEUTICAL CO., LTD., priority 2022, published 2025).
